Test system: PDOTS
Assay: Bead-based cytokine profiling of PDOTS after ex vivo checkpoint blockade
Format: cell-based, human
Procedure: Fresh tumor specimens (murine and human patients) were received in media (DMEM) on ice and minced in a 10 cm dish (on ice) using sterile forceps and scalpel. Minced tumor was resuspended in DMEM ([…], […] sodium pyruvate, 1:100 penicillin-streptomycin) (Corning CellGro, Manassas, Va.) +10% FBS (Gemini Bio-Products, West Sacramento, Calif.), 100 U/mL collagenase type IV (Life Technologies, Carlsbad, Calif.), and 15 mM HEPES (Life Technologies, Carlsbad, Calif.), except for CT26 tumors that were prepared in RPMI. Samples were pelleted and resuspended in 10-20 mL media. Red blood cells were removed from visibly bloody samples using RBC Lysis Buffer (Boston Bio-Products, Ashland, Mass.). […]
Two multiplex assays were performed utilizing a bead-based immunoassay approach, the Bio-Plex Pro™ Human Cytokine 40-plex Assay (Cat #171AK99MR2) and Bio-Plex Pro™ Mouse Cytokine Panel 1, 23-plex (Cat #M60009RDPD) on a Bio-plex 200 system (Cat #171000201). […] Fold changes relative to the MDOT/PDOT control were calculated and plotted as log 2FC. Lower and upper limits of quantitation (LLOQ/ULOQ) were imputed from standard curves for cytokines above or below detection. […]

Row | Substance | CCL19/CXCL13 induction in PDOTS (Day 3, ipilimumab 50 μg/mL alone or with pembrolizumab 250 μg/mL) | PDOTS samples with upregulation of CCL19 and CXCL13 (Day 3 cytokine release, n=28, pembrolizumab 250 μg/mL)
1 | CTLA-4 blockade: PDOTS were treated with anti-CTLA-4 (ipilimumab, 50 μg/mL) | comparatively minimal | 
2 | PD-1 blockade: PDOTS were treated with anti-PD-1 (pembrolizumab, 250 μg/mL) |  | 23/28

From patent publication US11572590B2, “Methods for evaluating tumor cell spheroids using 3D microfluidic cell culture device” (Dana-Farber Cancer Institute, Inc., priority 2017, dated 2023)
